For this experiment, the target named is T1, recombinant full-length human prolyl endopeptidase (PREP) (Homo sapiens, UniProt P48147).
T1 construct: To recombinant full-length human prolyl endopeptidase (PREP, R&D-Systems, 4308-SE); purchased R&D-Systems 4308-SE
T1 sequence (P48147 1-710): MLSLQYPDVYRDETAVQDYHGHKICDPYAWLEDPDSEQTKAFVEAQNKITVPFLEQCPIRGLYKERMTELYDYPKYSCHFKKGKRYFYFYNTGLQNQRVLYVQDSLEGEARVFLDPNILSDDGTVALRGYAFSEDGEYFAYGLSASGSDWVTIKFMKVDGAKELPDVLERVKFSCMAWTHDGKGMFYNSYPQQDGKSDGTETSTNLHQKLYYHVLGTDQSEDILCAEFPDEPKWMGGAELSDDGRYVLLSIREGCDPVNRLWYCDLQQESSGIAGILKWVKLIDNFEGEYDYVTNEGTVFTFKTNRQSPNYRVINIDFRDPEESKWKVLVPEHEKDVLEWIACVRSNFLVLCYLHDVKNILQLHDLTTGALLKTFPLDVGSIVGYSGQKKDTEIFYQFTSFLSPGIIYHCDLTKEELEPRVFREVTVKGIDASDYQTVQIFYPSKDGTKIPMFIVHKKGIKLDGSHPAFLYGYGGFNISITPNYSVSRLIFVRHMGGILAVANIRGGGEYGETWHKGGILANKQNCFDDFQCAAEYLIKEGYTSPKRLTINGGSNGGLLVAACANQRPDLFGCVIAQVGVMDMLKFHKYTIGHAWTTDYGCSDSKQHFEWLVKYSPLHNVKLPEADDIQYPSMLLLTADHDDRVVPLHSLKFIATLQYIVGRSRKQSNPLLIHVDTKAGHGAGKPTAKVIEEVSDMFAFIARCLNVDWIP
Put plainly: Biochemical human prolyl endopeptidase (PREP) assay with fluorescently labelled substrate. Conditions: substrate Z-Gly-Pro-AMC 50 μM, 32° C., 60 min; some as mean values from multiple independent determinations. Summed up:
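Initial rates of fluorescence increase from 50 μM Z-Gly-Pro-AMC cleavage (ex 360/em 465 nm, 60 min, 32° C) give percent PREP activity versus no-compound control, and IC50 is interpolated. Enzyme used at 0.4 nM (final, example) in Tris pH 7.5 with EDTA, GSH, BSA and Brij-35; compounds span 1 nM to 30 μM.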
Take `Cc1nc(C)c(Cn2nc3n(c2=O)C(C(=O)N2CCCC2)CCC3)nc1C` (racemic) [Example 103, (5RS)-5-(Pyrrolidin-1-ylcarbonyl)-2-[(3,5,6-trimethylpyrazin-2-yl)methyl]-5,6,7,8-tetrahydro[1,2,4]triazolo[4,3-a]pyridin-3(2H)-one]: the IC50 worked out at 0.16 nM.
Turning to `Cc1ccc(Cn2nc3n(c2=O)C(C)(C(=O)N2CCCC2)CCC3)cc1` (racemic) [Example 105, 5(RS)-5-Methyl-2-(4-methylbenzyl)-5-(pyrrolidin-1-ylcarbonyl)-5,6,7,8-tetrahydro[1,2,4]triazolo[4,3-a]pyridin-3(2H)-one], the IC50 is 10.5 nM.
Take `Cc1ccc(Cn2nc3n(c2=O)C(C(=O)N2CC(F)C2)CCC3)cc1` (racemic) [Example 112, (5RS)-5-[(3-Fluoroazetidin-1-yl)carbonyl]-2-(4-methylbenzyl)-5,6,7,8-tetrahydro[1,2,4]triazolo[4,3-a]pyridin-3(2H)-one]: the half-maximal inhibitory concentration (IC50) came to 1.59 nM.
Consider `Cc1ccc(Cn2nc3n(c2=O)C(C(=O)N2CC(F)(F)C2)CCC3)cc1` (racemic) [Example 114, (5RS)-5-[(3,3-Difluoroazetidin-1-yl)carbonyl]-2-(4-methylbenzyl)-5,6,7,8-tetrahydro[1,2,4]triazolo[4,3-a]pyridin-3(2H)-one], for which the IC50 amounted to 1.95 nM.
To `Cc1ccc(Cn2nc3n(c2=O)C(C(=O)N2C[C@@H]4[C@H](C2)C4(F)F)CCC3)cc1` (mixture of isomers) [Example 117, (5RS)-5-{[(cis)-6,6-Difluoro-3-azabicyclo[3.1.0]hex-3-yl]carbonyl}-2-(4-methylbenzyl)-5,6,7,8-tetrahydro[1,2,4]triazolo[4,3-a]pyridin-3(2H)-one] belongs 3.15 nM; to `Cc1ccc(Cn2nc3n(c2=O)C(C(=O)N2CCC(=O)C2)CCC3)cc1` (racemic) [Example 118, (5RS)-2-(4-Methylbenzyl)-5-[(3-oxopyrrolidin-1-yl)carbonyl]-5,6,7,8-tetrahydro[1,2,4]triazolo[4,3-a]pyridin-3(2H)-one], 5.6 nM; to `Cc1ccc(Cn2nc3n(c2=O)C(C(=O)N2CC(O)C2)CCC3)cc1` (racemic) [Example 120, (5RS)-5-[(3-Hydroxyazetidin-1-yl)carbonyl]-2-(4-methylbenzyl)-5,6,7,8-tetrahydro[1,2,4]triazolo[4,3-a]pyridin-3(2H)-one], 9.6 nM.
To `Cc1ccc(Cn2nc3n(c2=O)C(C(=O)N2CC(OC(F)F)C2)CCC3)cc1` (racemic) [Example 123, (5RS)-5-{[3-(Difluoromethoxy)azetidin-1-yl]carbonyl}-2-(4-methylbenzyl)-5,6,7,8-tetrahydro[1,2,4]triazolo[4,3-a]pyridin-3(2H)-one] belongs 12 nM; to `Cc1ccc(Cn2nc3n(c2=O)C(C(=O)N2CC(C(F)(F)F)C2)CCC3)cc1` (racemic) [Example 124, (5RS)-2-(4-Methylbenzyl)-5-{[3-(trifluoromethyl)azetidin-1-yl]carbonyl}-5,6,7,8-tetrahydro[1,2,4]triazolo[4,3-a]pyridin-3(2H)-one], 14 nM.
To `COC1CN(C(=O)C2CCCc3nn(Cc4ccc(C)cc4)c(=O)n32)C1` (racemic) [Example 125, (5RS)-5-[(3-Methoxyazetidin-1-yl)carbonyl]-2-(4-methylbenzyl)-5,6,7,8-tetrahydro[1,2,4]triazolo[4,3-a]pyridin-3(2H)-one] belongs 25 nM.
For the compound `Cc1ccc(Cn2nc3n(c2=O)C(C(=O)N2C[C@H]4C[C@H]4C2)CCC3)cc1` (mixture of isomers) [Example 126, (5RS)-5-[(cis)-3-Azabicyclo[3.1.0]hex-3-ylcarbonyl]-2-(4-methylbenzyl)-5,6,7,8-tetrahydro[1,2,4]triazolo[4,3-a]pyridin-3(2H)-one], the IC50 is 28.4 nM.
To `Cc1ccc(Cn2nc3n(c2=O)C(C(=O)N2CC(O)(C(F)(F)F)C2)CCC3)cc1` (racemic) [Example 131, (5RS)-{[3-Hydroxy-3-(trifluoromethyl)azetidin-1-yl]carbonyl}-2-(4-methylbenzyl)-5,6,7,8-tetrahydro[1,2,4]triazolo[4,3-a]pyridin-3(2H)-one] belongs 107 nM; to `Cc1ccc(Cn2nc3n(c2=O)C(C(=O)N2CC(=O)C2)CCC3)cc1` (racemic) [Example 133, (5RS)-2-(4-Methylbenzyl)-5-[(3-oxoazetidin-1-yl)carbonyl]-5,6,7,8-tetrahydro[1,2,4]triazolo[4,3-a]pyridin-3(2H)-one], 145 nM.
To `CC1Cc2nn(Cc3ccc(C(F)(F)F)nc3)c(=O)n2C(C(=O)N2CC(O)C2)C1` (racemic) [Example 134, (5RS,7RS)-5-[(3-Hydroxyazetidin-1-yl)carbonyl]-7-methyl-2-{[6-(trifluoromethyl)pyridin-3-yl]methyl}-5,6,7,8-tetrahydro[1,2,4]triazolo[4,3-a]pyridin-3(2H)-one] belongs 79 nM; to `CC1Cc2nn(Cc3ccc(C(F)(F)F)nc3)c(=O)n2C(C(=O)N2CC[C@H](F)C2)C1` (mixture of isomers) [Example 136, (5RS,7RS)-5-{[(3S)-3-Fluoropyrrolidin-1-yl]carbonyl}-7-methyl-2-{[6-(trifluoromethyl)pyridin-3-yl]methyl}-5,6,7,8-tetrahydro[1,2,4]triazolo[4,3-a]pyridin-3(2H)-one], 1.17 nM.
To `Cc1ccc(Cn2nc3n(c2=O)[C@H](C(=O)N2CC[S+]([O-])C2)CCC3)cc1` (mixture of isomers) [Example 141, (5S)-2-(4-Methylbenzyl)-5-{[(1 RS)-1-oxido-1,3-thiazolidin-3-yl]carbonyl}-5,6,7,8-tetrahydro[1,2,4]triazolo[4,3-a]pyridin-3(2H)-one] belongs 0.83 nM; to `Cc1ccc(Cn2nc3n(c2=O)C(C(=O)N2CCC4CC42)CCC3)cc1` (racemic) [Example 144, (5S)-5-[(cis)-2-Azabicyclo[3.1.0]hex-2-ylcarbonyl]-2-(4-methylbenzyl)-5,6,7,8-tetrahydro[1,2,4]triazolo[4,3-a]pyridin-3(2H)-one], 1.7 nM.
Regarding `Cc1ccc(Cn2nc3n(c2=O)[C@H](C(=O)N2CCC(C)(F)C2)CCC3)cc1` (mixture of isomers) [Example 151, (5S)-5-{[(3RS)-3-Fluoro-3-methylpyrrolidin-1-yl]carbonyl}-2-(4-methylbenzyl)-5,6,7,8-tetrahydro[1,2,4]triazolo[4,3-a]pyridin-3(2H)-one], the half-maximal inhibitory concentration (IC50) was determined as 0.26 nM.
`Cc1ccc(Cn2nc3n(c2=O)[C@H](C(=O)N2CCC(O)(C(F)(F)F)C2)CCC3)cc1` (mixture of isomers) [Example 152, (5S)-5-{[(3RS)-3-Hydroxy-3-(trifluoromethyl)pyrrolidin-1-yl]carbonyl}-2-(4-methylbenzyl)-5,6,7,8-tetrahydro[1,2,4]triazolo[4,3-a]pyridin-3(2H)-one]: the IC50 is 38 nM.
To `O=C(C1CCCc2nn(Cc3ccc(OCC(F)(F)F)nc3)c(=O)n21)N1CCCC1` (racemic) [Example 153, (5RS)-5-(Pyrrolidin-1-ylcarbonyl)-2-{[6-(2,2,2-trifluoroethoxy)pyridin-3-yl]methyl}-5,6,7,8-tetrahydro[1,2,4]triazolo[4,3-a]pyridin-3(2H)-one] belongs 36 nM.
In the case of `O=C(O)c1ccc(Cn2nc3n(c2=O)C(C(=O)N2CCCC2)CCC3)cc1` (racemic) [Example 154, 4-{[(5RS)-3-Oxo-5-(pyrrolidin-1-ylcarbonyl)-5,6,7,8-tetrahydro[1,2,4]triazolo[4,3-a]pyridin-2(3H)-yl]methyl}benzoic acid], the IC50 was found to be 790 nM.
Take `CNC(=O)c1ccc(Cn2nc3n(c2=O)C(C(=O)N2CCCC2)CCC3)cc1` (racemic) [Example 155, N-Methyl-4-{[(5RS)-3-oxo-5-(pyrrolidin-1-ylcarbonyl)-5,6,7,8-tetrahydro[1,2,4]triazolo[4,3-a]pyridin-2(3H)-yl]methyl}benzamide]: the IC50 came out at 210 nM.
To `CN(C)C(=O)c1ccc(Cn2nc3n(c2=O)C(C(=O)N2CCCC2)CCC3)cc1` (racemic) [Example 156, N,N-Dimethyl-4-{[(5RS)-3-oxo-5-(pyrrolidin-1-ylcarbonyl)-5,6,7,8-tetrahydro[1,2,4]triazolo[4,3-a]pyridin-2(3H)-yl]methyl}benzamide] belongs 69 nM; to `Cc1ccc(Cn2nc3n(c2=O)C(C(=O)N2CC=CCC2)CCC3)cc1` (racemic) [Example 158, (5RS)-5-(3,6-Dihydropyridin-1 (2H)-ylcarbonyl)-2-(4-methylbenzyl)-5,6,7,8-tetrahydro[1,2,4]triazolo[4,3-a]pyridin-3(2H)-one], 8.9 nM.
To `Cc1ccc(Cn2nc3n(c2=O)C(C(=O)N2CCOCC2)CCC3)cc1` (racemic) [Example 159, (5RS)-2-(4-Methylbenzyl)-5-(morpholin-4-ylcarbonyl)-5,6,7,8-tetrahydro[1,2,4]triazolo[4,3-a]pyridin-3(2H)-one] belongs 16 nM.

The values above are taken from patent publication US10722501B2 (BAYER AKTIENGESELLSCHAFT, priority 2016, dated 2020).
